Laboratory results as given in patent US6420571B2, “Methods for preparing antiviral calanolide compounds” (Sarawak MediChem Pharmaceuticals, Inc., priority 1999, dated 2002).
pEC50: −log10 of the molar value.

How the values were obtained:
HIV-1 [1] = details: down to a concentration of 0.1 μM; cited from earlier work
HIV-1 [2] = details: CEM-SS cells; read-out: EC50, HIV-1 replication; cited from earlier work
[3] = tested on: AZT-resistant G-9106 strain of HIV; details: cited from earlier work
[4] = tested on: pyridinone-resistant A17 virus; details: cited from earlier work

SMILES: CCCc1cc(=O)oc2cc(OC(=O)C(C)(C)C)cc(O)c12
- melting point: 158 to 160 °C

SMILES: CCCc1cc(=O)oc2c3c(c4c(c12)OC(C)(C)C=C4)O[C@H](C)[C@@H](C)[C@@H]3O [(+)-calanolide A]
- protection against the cytopathic effects of HIV-1 (HIV-1 [1]): 100%
- pEC50 (HIV-1 [2]): 7.00
- activity against AZT-resistant G-9106 strain of HIV [3]: active
- activity against pyridinone-resistant A17 virus [4]: active
